Consider 2 compounds from paper PMC6644700 (ACS chemical biology, 2019).

The experiment addresses T1, Nicotinamide N-methyltransferase (NNMT) (Homo sapiens, UniProt P40261, C165A).
T1 sequence (P40261 1-264 C165A): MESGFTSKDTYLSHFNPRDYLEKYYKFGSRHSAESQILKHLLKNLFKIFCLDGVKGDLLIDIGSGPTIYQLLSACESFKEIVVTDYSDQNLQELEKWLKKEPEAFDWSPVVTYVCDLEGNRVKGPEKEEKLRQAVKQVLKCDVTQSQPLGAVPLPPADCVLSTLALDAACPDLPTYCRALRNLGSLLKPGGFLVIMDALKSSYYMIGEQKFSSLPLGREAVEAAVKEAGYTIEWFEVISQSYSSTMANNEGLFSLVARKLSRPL
Put plainly: suicide inactivation of purified mutant with SAM. In kind it is biochemical.

Take `NC(=O)c1cnccc1Cl` [compound 3, 4-chloronicotinamide]: the “suicide inactivation of purified mutant with SAM” value is given as “By contrast, the C165A mutant remained sensitive”. On to `Clc1ccncc1` [compound 2, 4-chloropyridine], for which the “suicide inactivation of purified mutant with SAM” value is on record as “By contrast, the C165A mutant remained sensitive”.
